Assay results published in paper PMC9976899, “Identification of a novel 5-aminomethyl-2-thiouridine methyltransferase in tRNA modification” (Nucleic Acids Research, 2023).

Key:
atMnmM (atYtqB) = biological target: T1, atMnmM (atYtqB) (Arabidopsis thaliana, UniProt Q8GUP2); assay: in vitro tRNA methylation, nucleoside HPLC / LC-MS; type: biochemical; details: 0.1 mM SAM, 20 uM enzyme, bulk tRNA from B. subtilis delta-ytqB (nm5s2U), pH 7.5, 37 C
T1 construct: gene At1g16445; residues 53-274, chloroplast signal peptide removed, codon-optimized, His-tagged, expressed in E. coli BL21(DE3)
T1 sequence (Q8GUP2 53-274): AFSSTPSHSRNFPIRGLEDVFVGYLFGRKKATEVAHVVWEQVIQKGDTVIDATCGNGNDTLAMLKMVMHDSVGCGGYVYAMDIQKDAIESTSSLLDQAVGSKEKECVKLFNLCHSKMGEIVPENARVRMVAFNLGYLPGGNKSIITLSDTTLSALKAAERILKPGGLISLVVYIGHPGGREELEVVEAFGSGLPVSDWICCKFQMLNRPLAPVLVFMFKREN

osMnmM (osYtqB) = biological target: T2, osMnmM (osYtqB) (Oryza sativa, UniProt Q0DGU2); details: 0.1 mM SAM, 20 uM enzyme, bulk tRNA from B. subtilis delta-ytqB (nm5s2U), pH 7.5, 37 C
T2 construct: gene Os05g0511700
T2 sequence (Q0DGU2 48-260): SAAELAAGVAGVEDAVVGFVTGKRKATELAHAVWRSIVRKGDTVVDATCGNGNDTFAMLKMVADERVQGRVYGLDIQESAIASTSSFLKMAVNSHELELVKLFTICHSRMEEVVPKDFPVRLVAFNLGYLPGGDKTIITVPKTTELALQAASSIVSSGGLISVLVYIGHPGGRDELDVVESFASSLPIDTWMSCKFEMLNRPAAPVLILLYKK

C[S+](CC[C@H](N)C(=O)O)C[C@H]1O[C@@H](n2cnc3c(N)ncnc32)[C@H](O)[C@@H]1O (some centres unmarked) [SAM]
in vitro tRNA methylation, nucleoside HPLC / LC-MS (atMnmM (atYtqB)): saMnmM, atMnmM, and osMnmM were capable of methylating the hypomodified tRNA substrates
in vitro tRNA methylation, nucleoside HPLC / LC-MS (osMnmM (osYtqB)): saMnmM, atMnmM, and osMnmM were capable of methylating the hypomodified tRNA substrates
